{
  "source": "patent US20120244089A1",
  "about": "“USE OF THIAZOLE COMPOUND IN FLAVOR APPLICATIONS” (priority 2009, published 2012)",
  "key": {"[1]": {"assay": "Flavor evaluation in a beef broth sample", "conditions": "4 ppb", "description": "The flavor properties of 2-ethyl-4-methyl-2,5-dihydro-thiazole were evaluated in a beef broth sample. The beef broth sample included beef broth and less than 1% of the following: salt, MSG, hydrolyzed corn protein, hydrolyzed soy protein, hydrolyzed wheat protein, dextrose, onion powder, autolyzed yeast extract, caramel color, partially hydrogenated soybean oil, natural flavor, thiamine hydrochloride, disodium inosinate, and disodium guanylate."}, "[2]": {"assay": "Flavor description in water", "conditions": "1 ppb"}, "[3]": {"assay": "Flavor evaluation in a dairy product sample (mixed berry yogurt)", "conditions": "5 ppb", "description": "The flavor properties of 2-ethyl-4-methyl-2,5-dihydro-thiazole were evaluated in a dairy product sample. A mixed berry yogurt sample was used whose ingredients included cultured pasteurized grade A nonfat milk, high fructose corn syrup, modified corn starch, nonfat milk, kosher gelatin, corn starch, tricalcium phosphate, natural flavor, potassium sorbate added to maintain freshness, sucralose (splenda brand,) acesulfame potassium, colored with annatto extract, vitamin A acetate, and vitamin D3."}, "[4]": {"assay": "Flavor evaluation in an oatmeal sample", "conditions": "plain instant oatmeal", "description": "The flavor properties of 2-ethyl-4-methyl-2,5-dihydro-thiazole were evaluated in an oatmeal sample. Commercially available plain instant oatmeal was used whose ingredients included whole grain rolled oats, calcium carbonate, salt, guar gum, caramel color, reduced iron, niacinamide, vitamin A, palmitate, pyridoxine, hydrochloride, riboflavin, thiamin mononitrate, and folic acid."}, "[5]": {"assay": "Flavor evaluation in water by a trained sensory panel, 9-point hedonic scale", "conditions": "for Flavor Intensity: 9-point hedonic scale", "description": "The flavor properties of 2-ethyl-4-methyl-2,5-dihydro-thiazole (Formula I), 4-ethyl-2-methyl-3-thiazole (Formula II), and 4-methyl-2-propyl-2,5-dihydro-thiazole (Formula III) in water were evaluated by a trained sensory panel using the 9-point hedonic scale."}, "[6]": {"assay": "Flavor evaluation in a soft drink sample (orange soda)", "conditions": "5 ppb", "description": "The flavor properties of 2-ethyl-4-methyl-2,5-dihydro-thiazole were evaluated in a soft drink sample. An orange soda was used whose ingredients included carbonated water, high fructose corn syrup, citric acid, potassium benzoate, gum acacia, natural flavor, ester gum, yellow 6, brominated vegetable oil, and red 40."}},
  "note": "“Also recorded” adds a separate entry of the source.",
  "data": [
    {"smiles": "CCC1N=C(C)CS1", "note": "(stereo not shown) [Formula I, 2-ethyl-4-methyl-2,5-dihydro-thiazole]", "values": [
      {"measurement": "Flavor effect", "setting": "[1]", "result": "boosted the roast note and imparted additional tropical note"},
      {"measurement": "Flavor notes", "setting": "[2]", "result": "tropical fruit, catty, peach, and berry flavor notes"},
      {"measurement": "Flavor effect", "setting": "[3]", "result": "boosted the fruity note and imparted a peach note"},
      {"measurement": "Flavor effect", "setting": "[4]; 1 ppb", "result": "added faint sulfurous note and synergized with grain note"},
      {"measurement": "Flavor effect", "setting": "[4]; 5 ppb", "result": "sulfurous and peach notes"},
      {"measurement": "Flavor Profile", "setting": "[5]; 100 ppb", "result": "Tropical, fruit, peach,; also recorded: slightly catty, and meaty; also recorded: Very strong"},
      {"measurement": "Flavor Intensity", "setting": "[5]; 100 ppb", "result": 7.11},
      {"measurement": "Flavor character, comparison with analogs", "setting": "[5]; summary of the panel results", "result": "unexpected strong and long-lasting fruity character; also recorded: superior to all other structurally closely related analogs"},
      {"measurement": "Flavor effect", "setting": "[6]", "result": "provided the feel of a tangerine soda and more natural taste and having cut the acidity"}
    ]},
    {"smiles": "CCC1=NC(C)SC1", "note": "(stereo not shown) [Formula II, 4-Ethyl-2-methyl-2,5-dihydro-thiazole]", "values": [
      {"measurement": "Flavor Profile", "setting": "[5]; 1 ppm", "result": "Nutty and cabbage"},
      {"measurement": "Flavor Intensity", "setting": "[5]; 1 ppm", "result": 1}
    ]},
    {"smiles": "CCCC1N=C(C)CS1", "note": "(stereo not shown) [Formula III, 4-Methyl-2-propyl-2,5-dihydro-thiazole]", "values": [
      {"measurement": "Flavor Profile", "setting": "[5]; 350 ppb", "result": "Sulfury, nutty, and skunk; also recorded: Strong"},
      {"measurement": "Flavor Intensity", "setting": "[5]; 350 ppb", "result": 3.33}
    ]}
  ]
}
